From patent US8192962B2, “Processes for detecting toxic substances” (Daikin Industries, Ltd., priority 2001, dated 2012)

System: Mitochondria-located protein genes
Assay: DNA chip mRNA expression in yeast, mitochondria-located protein genes (Table 2)
Type: cell-based, Saccharomyces cerevisiae S288C
Details: cells incubated two hours with the chemical substance
Summary of the method: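 S. cerevisiae S288C grown at 25° C in YPD were exposed in log phase for two hours to one toxic chemical at a growth-inhibiting, non-lethal concentration; untreated cells served as control. Poly(A) mRNA was reverse-transcribed with Cy3/Cy5-dUTP and hybridized to a whole-genome yeast DNA chip at 65° C for over 12 hours; values are fluorescence ratios versus untreated.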

CCCCCCCCCCCCc1ccc(S(=O)(=O)[O-])cc1.[Na+] [(17), sodium dodecylbenzosulfonate]
The level of expressed mRNA in the presence of chemical substance/The level of expressed mRNA in the absence of chemical substance (yeast gene YAL039C): 1.4 | The level of expressed mRNA in the presence of chemical substance/The level of expressed mRNA in the absence of chemical substance (yeast gene YBL022C): 0.9 | The level of expressed mRNA in the presence of chemical substance/The level of expressed mRNA in the absence of chemical substance (yeast gene YBL030C): 1.0 | The level of expressed mRNA in the presence of chemical substance/The level of expressed mRNA in the absence of chemical substance (yeast gene YBL038W): 1.2 | The level of expressed mRNA in the presence of chemical substance/The level of expressed mRNA in the absence of chemical substance (yeast gene YBL099W): 0.7 | The level of expressed mRNA in the presence of chemical substance/The level of expressed mRNA in the absence of chemical substance (yeast gene YBR003W): 1.1 | The level of expressed mRNA in the presence of chemical substance/The level of expressed mRNA in the absence of chemical substance (yeast gene YBR044C): 0.9 | The level of expressed mRNA in the presence of chemical substance/The level of expressed mRNA in the absence of chemical substance (yeast gene YBR091C): 1.0 | The level of expressed mRNA in the presence of chemical substance/The level of expressed mRNA in the absence of chemical substance (yeast gene YBR122C): 0.9 | The level of expressed mRNA in the presence of chemical substance/The level of expressed mRNA in the absence of chemical substance (yeast gene YBR185C): 0.8 | The level of expressed mRNA in the presence of chemical substance/The level of expressed mRNA in the absence of chemical substance (yeast gene YBR221C): 0.9 | The level of expressed mRNA in the presence of chemical substance/The level of expressed mRNA in the absence of chemical substance (yeast gene YBR251W): 0.9 | The level of expressed mRNA in the presence of chemical substance/The level of expressed mRNA in the absence of chemical substance (yeast gene YBR282W): 0.9 | The level of expressed mRNA in the presence of chemical substance/The level of expressed mRNA in the absence of chemical substance (yeast gene YCL057W): 0.9 | The level of expressed mRNA in the presence of chemical substance/The level of expressed mRNA in the absence of chemical substance (yeast gene YCR046C): 1.3 | The level of expressed mRNA in the presence of chemical substance/The level of expressed mRNA in the absence of chemical substance (yeast gene YCR083W): 1.3 | The level of expressed mRNA in the presence of chemical substance/The level of expressed mRNA in the absence of chemical substance (yeast gene YDL067C): 1.2 | The level of expressed mRNA in the presence of chemical substance/The level of expressed mRNA in the absence of chemical substance (yeast gene YDL181W): 1.5 | The level of expressed mRNA in the presence of chemical substance/The level of expressed mRNA in the absence of chemical substance (yeast gene YDL198C): 1.5 | The level of expressed mRNA in the presence of chemical substance/The level of expressed mRNA in the absence of chemical substance (yeast gene YDR079W): 1.1 | The level of expressed mRNA in the presence of chemical substance/The level of expressed mRNA in the absence of chemical substance (yeast gene YDR178W): 1.2 | The level of expressed mRNA in the presence of chemical substance/The level of expressed mRNA in the absence of chemical substance (yeast gene YDR231C): 1.2 | The level of expressed mRNA in the presence of chemical substance/The level of expressed mRNA in the absence of chemical substance (yeast gene YDR258C): 1.3 | The level of expressed mRNA in the presence of chemical substance/The level of expressed mRNA in the absence of chemical substance (yeast gene YDR298C): 1.1 | The level of expressed mRNA in the presence of chemical substance/The level of expressed mRNA in the absence of chemical substance (yeast gene YDR347W): 0.9 | The level of expressed mRNA in the presence of chemical substance/The level of expressed mRNA in the absence of chemical substance (yeast gene YDR377W): 1.2 | The level of expressed mRNA in the presence of chemical substance/The level of expressed mRNA in the absence of chemical substance (yeast gene YDR529C): 1.0 | The level of expressed mRNA in the presence of chemical substance/The level of expressed mRNA in the absence of chemical substance (yeast gene YEL024W): 1.1 | The level of expressed mRNA in the presence of chemical substance/The level of expressed mRNA in the absence of chemical substance (yeast gene YEL039C): 0.7 | The level of expressed mRNA in the presence of chemical substance/The level of expressed mRNA in the absence of chemical substance (yeast gene YER178W): 1.1 | The level of expressed mRNA in the presence of chemical substance/The level of expressed mRNA in the absence of chemical substance (yeast gene YFL016C): 1.2 | The level of expressed mRNA in the presence of chemical substance/The level of expressed mRNA in the absence of chemical substance (yeast gene YGL018C): 0.8 | The level of expressed mRNA in the presence of chemical substance/The level of expressed mRNA in the absence of chemical substance (yeast gene YGL187C): 0.9 | The level of expressed mRNA in the presence of chemical substance/The level of expressed mRNA in the absence of chemical substance (yeast gene YGL191W): 1.2 | The level of expressed mRNA in the presence of chemical substance/The level of expressed mRNA in the absence of chemical substance (yeast gene YGR008C): 1.7 | The level of expressed mRNA in the presence of chemical substance/The level of expressed mRNA in the absence of chemical substance (yeast gene YGR028W): 1.5 | The level of expressed mRNA in the presence of chemical substance/The level of expressed mRNA in the absence of chemical substance (yeast gene YGR062C): 0.9 | The level of expressed mRNA in the presence of chemical substance/The level of expressed mRNA in the absence of chemical substance (yeast gene YGR076C): 0.9 | The level of expressed mRNA in the presence of chemical substance/The level of expressed mRNA in the absence of chemical substance (yeast gene YGR082W): 0.9 | The level of expressed mRNA in the presence of chemical substance/The level of expressed mRNA in the absence of chemical substance (yeast gene YGR174C): 1.3 | The level of expressed mRNA in the presence of chemical substance/The level of expressed mRNA in the absence of chemical substance (yeast gene YGR244C): 1.9 | The level of expressed mRNA in the presence of chemical substance/The level of expressed mRNA in the absence of chemical substance (yeast gene YHR008C): 0.9 | The level of expressed mRNA in the presence of chemical substance/The level of expressed mRNA in the absence of chemical substance (yeast gene YIL155C): 1.1 | The level of expressed mRNA in the presence of chemical substance/The level of expressed mRNA in the absence of chemical substance (yeast gene YJL096W): 1.1 | The level of expressed mRNA in the presence of chemical substance/The level of expressed mRNA in the absence of chemical substance (yeast gene YJL102W): 1.0 | The level of expressed mRNA in the presence of chemical substance/The level of expressed mRNA in the absence of chemical substance (yeast gene YJL133W): 0.8 | The level of expressed mRNA in the presence of chemical substance/The level of expressed mRNA in the absence of chemical substance (yeast gene YJL166W): 1.7 | The level of expressed mRNA in the presence of chemical substance/The level of expressed mRNA in the absence of chemical substance (yeast gene YJL180C): 0.9 | The level of expressed mRNA in the presence of chemical substance/The level of expressed mRNA in the absence of chemical substance (yeast gene YJR045C): 0.7 | The level of expressed mRNA in the presence of chemical substance/The level of expressed mRNA in the absence of chemical substance (yeast gene YJR077C): 1.0
